Laboratory results taken from PMC5863515, “Re-evaluation of Adrenocorticotropic Hormone and Melanocyte Stimulating Hormone Activation of GPR139 in Vitro” (Frontiers in Pharmacology, 2018).
pEC50: −log10 of the molar value. Ends that are not written are not given here.

What was measured:
[1] = molecular target: MC5R + GPR139 (Homo sapiens, UniProt Q6DWJ6); assay: Calcium mobilization, HEK-293 transiently expressing MC5R + GPR139; format: cell-based; conditions: MC5R + GPR139; 10 μM JNJ-3792165 or 1 μM HS-024
Procedure: (§1) Human MC3R (NM_019888), MC4R (NM_005912), and MC5R (NM_005913) were transiently expressed in HEK-293 cells with and without human GPR139 (KR081941) or the chimeric G-protein Gα16. All genes were cloned into pCIneo (Promega, Madison, WI, United States, #E1841). HEK-293 cells were cultured in DMEM/F12 (Gibco, Grand Island, NY, United States, #11039-021), 10% FBS (Hyclone, Logan, UT, United States, # SH300700.03), 50 units/ml penicillin and 50 μg/ml streptomycin (Mediatech, Manassas, VA, United States, #30-001-CI). Cells were seeded at 4 × 10^6 cells in 10 cm dishes and allowed to grow overnight at 37°C, 5% CO2. On the day of transfection, culture media was replaced with F12-K (Mediatech, Manassas, VA, United States, #10-025-CV), 10% FBS, 20 mM HEPES (Hyclone, Logan, UT, United States, #SH30237.01) and transfected with 15 μg DNA (10 μg MCR:5 μg pCIneo, 10 μg MCR:5 μg Gα16 or 7.5 μg MCR:7.5 μg GPR139) using FuGene HD (Promega, Madison, WI, United States, #E2311) according to manufacturer’s instructions. MC3R, MC4R, and MC5R were also transiently expressed in the following GPR139 stably expressing cell lines using the FuGENE HD method: HEK-293 GPR139 clone#33, CHO-TREx GPR139 clone#18, and SK-N-MC/CRE TREx GPR139 clone#35. Stable cell lines were established according to method previously described ([Liu et al., 2015]).
(§2) Intracellular calcium mobilization was measured with the BD calcium kit (BD Bioscience, San Jose, CA, United States). The recombinant cell lines expressing MC3R, MC4R, and MC5R with and without GPR139 or Gα16 were seeded in culture media at a density of 50,000 cells/well into 96-well black/clear-bottom poly-D-lysine treated tissue culture plates. Cells were incubated overnight at 37°C and 5% CO2. Next day, culture media was removed and cells were washed with HBSS prior to dye-loading for 1 h at 37°C and 5% CO2. Agonist stimulation and intracellular calcium measurements were done on the FLIPR Tetra (Molecular Devices, Sunnyvale, CA, United States). For receptor inhibition analysis, antagonists (1 μM HS-024 or 10 μM JNJ-3792165) were added off-line 15 min prior to agonist addition on the Tetra. For G-protein inhibitor experiments, cells were treated with 1 μM YM-254890 for 5 min prior to agonist additions on the Tetra. […] Responses in Figure 6 were normalized to its respective agonist response without antagonist. EC50s were calculated by fitting a three-parameter logistic curve using least-squares non-linear regression analysis as implemented in Graphpad Prism 7.0.

[2] = tested on: over 50 other neurotransmitter and neuropeptide receptors including the MCRs; assay: Selectivity panel of over 50 other neurotransmitter and neuropeptide receptors; format: binding; conditions: at 1 μM
[3] = molecular target: MC3R + GPR139 (Homo sapiens, UniProt Q6DWJ6); assay: Calcium mobilization, HEK-293 transiently expressing MC3R + GPR139; format: cell-based; conditions: MC3R + GPR139; 10 μM JNJ-3792165 or 1 μM HS-024
Procedure: Intracellular calcium mobilization was measured with the BD calcium kit (BD Bioscience, San Jose, CA, United States). The recombinant cell lines expressing MC3R, MC4R, and MC5R with and without GPR139 or Gα16 were seeded in culture media at a density of 50,000 cells/well into 96-well black/clear-bottom poly-D-lysine treated tissue culture plates. Cells were incubated overnight at 37°C and 5% CO2. Next day, culture media was removed and cells were washed with HBSS prior to dye-loading for 1 h at 37°C and 5% CO2. Agonist stimulation and intracellular calcium measurements were done on the FLIPR Tetra (Molecular Devices, Sunnyvale, CA, United States). […] EC50s were calculated by fitting a three-parameter logistic curve using least-squares non-linear regression analysis as implemented in Graphpad Prism 7.0.

[4] = molecular target: T1, GPR139 (Homo sapiens, UniProt Q6DWJ6); assay: [35S]-GTPγS binding assay, membranes of CHO-TREx cells stably expressing GPR139; format: biochemical; parameters: expressed in transfected cells; host or cells: CHO-TREx GPR139 clone#18
T1 sequence (Q6DWJ6 1-353): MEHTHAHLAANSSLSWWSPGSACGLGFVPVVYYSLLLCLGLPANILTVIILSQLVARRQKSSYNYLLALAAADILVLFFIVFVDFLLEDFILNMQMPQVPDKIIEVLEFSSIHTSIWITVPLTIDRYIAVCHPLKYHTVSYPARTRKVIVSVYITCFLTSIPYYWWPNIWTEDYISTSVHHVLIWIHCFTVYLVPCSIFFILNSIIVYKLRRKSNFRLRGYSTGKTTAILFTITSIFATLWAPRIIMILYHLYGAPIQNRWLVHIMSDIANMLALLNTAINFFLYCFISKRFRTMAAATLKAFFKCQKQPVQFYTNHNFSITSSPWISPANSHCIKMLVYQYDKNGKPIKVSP
Procedure: For G-protein inhibitor experiments, CHO-TRex cells stably expressing GPR139 were treated with 100 ng/ml pertussis toxin (Gi/o inhibitor) overnight prior to harvesting cells for membrane preparations. […] Reactions were terminated by rapid filtration through GF/C filterplates (Perkin-Elmer, Waltham, MA, United States) on a Cell Harvester (Perkin-Elmer, Waltham, MA, United States). Filterplates were washed three times with ice-cold wash buffer (50 mM Tris, 5 mM MgCl2) and Microscint-40 was added to each well. Bound radioactivity was measured on a Topcount scintillation counter (Perkin-Elmer, Waltham, MA, United States). […] EC50s were calculated by modeling the response associated with the logarithm of concentration as a three-parameter logistic curve with the Bottom plateau parameter fixed at 0. The fit was obtained using least-squares non-linear regression as implemented in GraphPad Prism 7.0.

[5] = molecular target: T1, GPR139; assay: Calcium mobilization assay, antagonism at GPR139 (cell line not stated); format: cell-based; parameters: expressed in transfected cells; host or cells: CHO-TREx GPR139 clone#18; conditions: read-out: pKb, antagonist in calcium mobilization assay (converted)
Procedure: as §2

[6] = molecular target: MC4R + GPR139 (Homo sapiens, UniProt Q6DWJ6); assay: Calcium mobilization, HEK-293 transiently expressing MC4R + GPR139; format: cell-based; conditions: MC4R + GPR139; 10 μM JNJ-3792165 or 1 μM HS-024
Procedure: as §1, §2

[7] = molecular target: T1, GPR139; assay: [3H]JNJ-63533054 radioligand binding assay, membranes of CHO-TREx cells stably expressing human GPR139; parameters: expressed in transfected cells; host or cells: CHO-TREx GPR139 clone#18; conditions: 10 nM radioligand; CHO-TREx GPR139 membranes; read-out: pKi, displacement of [3H]JNJ-63533054 (converted)
Procedure: Reaction was terminated by filtration through GF/C filterplates pre-treated with PEI (polyethyleneimine) followed by washes with ice-cold TE buffer. Filterplates were dried in a 60°C oven followed by addition of Microscint-0. Bound radioactivity was read on a Topcount scintillation counter. […] Half-maximal inhibitory concentrations (IC50s) of test compounds were calculated by fitting a three-parameter logistic curve using least-squares non-linear regression analysis as implemented in Graphpad Prism 7.0. The Top plateau was fixed at 100 and the Bottom was fixed at 0.

[8] = molecular target: T1, GPR139; parameters: method as in Liu et al., 2015; conditions: ref Liu et al., 2015; cited from earlier work
[9] = molecular target: T1, GPR139; assay: Calcium mobilization, HEK-293 cells stably expressing human GPR139; format: cell-based; parameters: expressed in transfected cells; conditions: HEK-293 stable GPR139
Procedure: as §1, §2

[10] = molecular target: T1, GPR139; assay: Calcium mobilization, CHO-TREx cells stably expressing human GPR139; format: cell-based; parameters: expressed in transfected cells; host or cells: CHO-TREx GPR139 clone#18; conditions: CHO-TREx stable GPR139
[11] = molecular target: T1, GPR139; parameters: expressed in transfected cells; host or cells: CHO-TREx GPR139 clone#18; method as in Nøhr et al. (2017b); conditions: ref Nøhr et al. (2017b), cited from earlier work; for Activation of GPR139, potency range in words: CHO cells stably expressing human GPR139
[12] = molecular target: T2, MC4R (Homo sapiens, UniProt P32245); assay: Calcium mobilization, HEK-293 transiently expressing MC4R; format: cell-based; conditions: HEK293; HEK-293 transient MC4R alone; read-out: Emax, calcium release in MC4R expressing cells
T2 construct: expressed in transfected cells; host or cells: HEK-293, pCIneo, transient (FuGene HD)
Procedure: as §1, §2

[13] = molecular target: T1, GPR139; assay: Calcium mobilization, SK-N-MC/CRE cells stably expressing human GPR139; format: cell-based; parameters: expressed in transfected cells; host or cells: CHO-TREx GPR139 clone#18; conditions: SK-N-MC/CRE stable GPR139
Procedure: as §1, §2

[14] = molecular target: MC4R + Gα16 (Homo sapiens, UniProt P32245); assay: Calcium mobilization, CHO-K1 cells transiently expressing MC4R + Gα16; format: cell-based; parameters: expressed in transfected cells; host or cells: CHO-K1, transient; conditions: data not shown
Sequence of MC4R + Gα16 (P32245 whole entry): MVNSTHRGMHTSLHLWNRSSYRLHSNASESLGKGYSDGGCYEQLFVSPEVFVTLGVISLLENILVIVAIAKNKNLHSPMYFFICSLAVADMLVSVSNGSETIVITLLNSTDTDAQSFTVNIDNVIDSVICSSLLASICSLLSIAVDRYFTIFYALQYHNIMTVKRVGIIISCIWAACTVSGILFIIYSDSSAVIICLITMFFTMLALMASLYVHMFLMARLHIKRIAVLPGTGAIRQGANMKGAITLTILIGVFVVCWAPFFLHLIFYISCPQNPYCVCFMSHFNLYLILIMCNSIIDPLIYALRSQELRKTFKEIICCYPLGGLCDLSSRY

Sequence of MC4R + GPR139 (P32245 whole entry partner, one chain of several): as the sequence (P32245 whole entry) above
Sequence of MC3R + GPR139 (P41968 whole entry partner, one chain of several): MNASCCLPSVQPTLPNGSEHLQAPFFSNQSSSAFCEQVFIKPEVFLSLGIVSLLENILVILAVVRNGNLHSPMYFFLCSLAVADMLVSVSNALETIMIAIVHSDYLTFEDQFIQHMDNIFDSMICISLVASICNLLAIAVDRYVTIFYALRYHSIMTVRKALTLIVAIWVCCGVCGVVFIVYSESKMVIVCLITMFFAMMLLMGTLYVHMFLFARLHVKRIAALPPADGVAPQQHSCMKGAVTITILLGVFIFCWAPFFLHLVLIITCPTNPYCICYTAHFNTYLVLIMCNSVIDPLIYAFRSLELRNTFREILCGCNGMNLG
Sequence of MC5R + GPR139 (P33032 whole entry partner, one chain of several): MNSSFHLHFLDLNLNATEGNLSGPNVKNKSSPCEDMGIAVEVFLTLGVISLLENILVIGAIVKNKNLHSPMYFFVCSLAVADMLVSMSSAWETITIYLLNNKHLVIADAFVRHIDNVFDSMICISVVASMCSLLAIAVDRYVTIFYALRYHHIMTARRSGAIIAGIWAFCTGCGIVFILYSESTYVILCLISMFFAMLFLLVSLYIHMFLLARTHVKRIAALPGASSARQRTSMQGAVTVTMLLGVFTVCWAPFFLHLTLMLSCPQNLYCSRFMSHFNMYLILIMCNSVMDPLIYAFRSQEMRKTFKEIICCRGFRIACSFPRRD
T2 sequence (P32245 whole entry): as the sequence (P32245 whole entry) above

| Compound | Calcium mobilization activity, in words [9] | Emax [12] [%] | Calcium response in CHO-K1 cells co-expressing MC4R + Gα16 [14] | Antagonist effect on ACTH, α-MSH and β-MSH induced calcium response [1] | Antagonist effect on calcium response to GPR139 agonists (JNJ-63533054, TC-09311, L-Trp) [1] | Antagonist effect on ACTH, α-MSH and β-MSH induced calcium response [3] | Antagonist effect on calcium response to GPR139 agonists (JNJ-63533054, TC-09311, L-Trp) [3] | Antagonist effect on ACTH, α-MSH and β-MSH induced calcium response [6] | Antagonist effect on calcium response to GPR139 agonists (JNJ-63533054, TC-09311, L-Trp) [6] | Activation of GPR139, potency range in words [11] | further results |
| --- | --- | --- | --- | --- | --- | --- | --- | --- | --- | --- | --- |
| Cc1cccc(NC(=O)c2cc(C)n(Cc3c(Cl)cccc3Cl)n2)c1 [JNJ-3792165, 1H-pyrazole-3-carboxamide, 1-[(2,6-dichlorophenyl)methyl]-5-methyl-N-(3-methylphenyl)] | – | – | – | did not block | fully inhibited | did not block | fully inhibited | did not block | fully inhibited | – | Inhibition at any receptor other than GPR139 (selectivity panel) [2]: less than 50%; Kb ([4]; read-out: pKb, antagonist in [35S]GTPγS assay (converted)): 0.0398 µM; Kb [5]: 0.126 µM; Ki [7]: 0.02 µM |
| N[C@@H](Cc1ccccc1)C(=O)O [L-Phe, L-phenylalanine] | – | – | – | – | – | – | – | – | – | – | pEC50 [8]: 3.52 to 4.52 |
| HS-024 | – | – | – | fully blocked | reduced the efficacy | rightward shift of the EC50 | had no effect | reduction in both potency and efficacy | had no effect | – | – |

Continued, in another order:

| Calcium mobilization activity, in words [9] | Emax [12] [%] | Calcium response in CHO-K1 cells co-expressing MC4R + Gα16 [14] | Compound | Antagonist effect on ACTH, α-MSH and β-MSH induced calcium response [1] | Antagonist effect on calcium response to GPR139 agonists (JNJ-63533054, TC-09311, L-Trp) [1] | Antagonist effect on ACTH, α-MSH and β-MSH induced calcium response [3] | Antagonist effect on calcium response to GPR139 agonists (JNJ-63533054, TC-09311, L-Trp) [3] | Antagonist effect on ACTH, α-MSH and β-MSH induced calcium response [6] | Antagonist effect on calcium response to GPR139 agonists (JNJ-63533054, TC-09311, L-Trp) [6] | Activation of GPR139, potency range in words [11] | further results |
| --- | --- | --- | --- | --- | --- | --- | --- | --- | --- | --- | --- |
| No activity was detected | 24 | calcium response | CSCC[C@H](NC(=O)[C@H](CCCNC(=N)N)NC(=O)[C@H](Cc1ccc(O)cc1)NC(=O)[C@@H]1CCCN1C(=O)CNC(=O)[C@H](CCC(=O)O)NC(=O)[C@H](CC(=O)O)NC(=O)[C@H](CCCCN)NC(=O)[C@H](CCCCN)NC(=O)[C@H](CCC(=O)O)NC(=O)[C@H](C)N)C(=O)N[C@@H](CCC(=O)O)C(=O)N[C@@H](Cc1c[nH]cn1)C(=O)N[C@@H](Cc1ccccc1)C(=O)N[C@@H](CCCNC(=N)N)C(=O)N[C@@H](Cc1c[nH]c2ccccc12)C(=O)NCC(=O)N[C@@H](CO)C(=O)N1CCC[C@H]1C(=O)N1CCC[C@H]1C(=O)N[C@@H](CCCCN)C(=O)N[C@@H](CC(=O)O)C(=O)O [β-MSH, β melanocyte stimulating hormone] | – | – | – | – | – | – | sub- to low micromolar range | Calcium mobilization activity, in words [10]: No activity was detected; Calcium mobilization activity, in words [13]: No activity was detected; Activation of GPR139 ([35S]-GTPγS incorporation), in words ([4]; up to 30 μM): did not activate GPR139 |
| did not increase calcium mobilization | 27 | calcium response | SYSMEHFRWGKPVGKKRRPVKVYPNGAEDESAEAFPLEF [ACTH, adrenocorticotropic hormone] | – | – | – | – | – | – | sub- to low micromolar range | Fold less potent on GPR139 than on MC4R [11]: 100 fold |
